Results: ChEMBL document CHEMBL1124722, “Synthesis and anticonvulsant activity of 2-benzylglutarimides” (J Med Chem, 1990)
Active and inactive are the calls of the source. The calls are words filed in the database; no cut-off is given here.

Assays:
Mus musculus [1] = assay: Anticonvulsant activity against maximal electroshock induced seizures (MES) after 0.5 h; Not active up to 300 mg/kg; type: functional, organism-based; design: dose 300 mg/kg
Mus musculus [2] = assay: Anticonvulsant activity against maximal electroshock induced seizures after 4 hr; Not active up to 300 mg/kg.; type: functional, organism-based; design: dose 300 mg/kg
Mus musculus [3] = assay: Anticonvulsant activity against subcutaneous administered Metrazol induced seizures (scMET) after 0.5 hr at 300 mg/kg; Active; type: functional, organism-based; design: dose 300 mg/kg
Mus musculus [4] = assay: Anticonvulsant activity against subcutaneous administered Metrazol induced seizures (scMET) after 4 hr at 100 mg/kg; Active; type: functional, organism-based; design: dose 100 mg/kg
Mus musculus [5] = assay: The effective dose of compound was tested against subcutaneous administered Metrazol induced seizures after intraperitoneal administration.; type: functional
Mus musculus [6] = species on record: Mus musculus; assay: Time of peak effect was determined for toxicity; type: organism-based; design: unit not given here; settings: in vivo
Mus musculus [7] = assay: The Neurologic toxicity by measuring rotarod test after 4 hr at 300 mg/kg; Active; type: organism-based; design: dose 300 mg/kg; settings: in vivo
[8] = The cytotoxicity after intraperitoneal administration; type: organism-based; settings: mouse, in vivo, ip
Mus musculus [9] = assay: The Neurologic toxicity by measuring rotarod test after 0.5 hr at 300 mg/kg; Active; type: organism-based; design: dose 300 mg/kg; settings: in vivo
[10] = Protective index was calculated (TD50/ED50) in MES assay in mice after intraperitoneal administration; […]; type: functional, organism-based
[11] = Protective index was calculated (TD50/ED50) in scMET assay in mice after intraperitoneal administration; type: functional
Mus musculus [12] = species on record: Mus musculus; assay: Time of peak effect was determined for activity in MES; type: functional; design: unit not given here
Mus musculus [13] = assay: Anticonvulsant activity against subcutaneous administered Metrazol induced seizures (scMET) after 0.5 hr at 30 mg/kg; Active; type: functional, organism-based; design: dose 30 mg/kg
Mus musculus [14] = assay: Anticonvulsant activity against subcutaneous administered Metrazol induced seizures (scMET) after 4 hr at 300 mg/kg; Active; type: functional, organism-based; design: dose 300 mg/kg
Mus musculus [15] = assay: (§1) The Neurologic toxicity by measuring rotarod test after 0.5 h; Not active up to 300 mg/kg; type: organism-based; design: dose 300 mg/kg; settings: in vivo
Mus musculus [16] = assay: (§2) The Neurologic toxicity by measuring rotarod test after 4 hr; Not active up to 300 mg/kg; type: organism-based; design: dose 300 mg/kg; settings: in vivo
Mus musculus [17] = assay: Anticonvulsant activity against maximal electroshock induced seizures (MES) after 0.5 hr at 100 mg/kg; Active; type: functional, organism-based; design: dose 100 mg/kg
Mus musculus [18] = assay: The effective dose of compound was tested against maximal electroshock induced seizures after intraperitoneal administration; type: functional; settings: ip
Mus musculus [19] = assay: The effective dose of compound was tested against subcutaneous administered Metrazol induced seizures after intraperitoneal administration; type: functional
[20] = Protective index was calculated (TD50/ED50) in MES assay in mice after intraperitoneal administration; type: functional
Mus musculus [21] = species on record: Mus musculus; assay: (§3) Time of peak effect activity against maximal electroshock induced seizures; type: functional
Mus musculus [22] = species on record: Mus musculus; assay: Median hypnotic dose by loss of righting reflex; type: functional
Mus musculus [23] = assay: The compound was tested for anticonvulsant activity against (subcutaneous administered) Metrazol induced seizures after intraperitoneal administration; type: functional
Mus musculus [24] = assay: The compound was tested for anticonvulsant activity against (subcutaneous administered) strychnine induced seizures after intraperitoneal administration; type: functional
Mus musculus [25] = species on record: Mus musculus; assay: Median lethal dose was measured after 24 hr; type: functional
Mus musculus [26] = assay: The effective dose of compound was tested against maximal electroshock induced seizures after oral administration in mice; type: functional
Mus musculus [27] = species on record: Mus musculus; assay: Time of peak effect toxicity against maximal electroshock induced seizures; type: organism-based; settings: in vivo
Rattus norvegicus [28] = assay: The effective dose of compound was tested against subcutaneous administered Metrazol induced seizures in rat.; type: functional; settings: sc
Mus musculus [29] = assay: The effective dose of compound was tested against subcutaneous administered Metrazol induced seizures in mice; type: functional; settings: sc
Mus musculus [30] = assay: Anticonvulsant activity against maximal electroshock induced seizures (MES) after 0.5 hr at 300 mg/kg; Active; type: functional, organism-based; design: dose 300 mg/kg
Mus musculus [31] = assay: Anticonvulsant activity against maximal electroshock induced seizures (MES) after 4 hr at 300 mg/kg; Active; type: functional, organism-based; design: dose 300 mg/kg
Mus musculus [32] = assay: The Neurologic toxicity by measuring rotarod test after 4 hr; No toxicity up to 300 mg/kg; type: organism-based; design: dose 300 mg/kg; settings: in vivo
Mus musculus [33] = assay: The effective dose of compound was tested against maximal electroshock induced seizures after intraperitoneal administration.; type: functional; settings: ip
Mus musculus [34] = species on record: Mus musculus; assay: as §3; type: ADME, organism-based; settings: in vivo
Mus musculus [35] = species on record: Mus musculus; assay: Median hypnotic dose by loss of righting reflex.; type: functional
[36] = Median lethal dose was measured after 24 hr.; type: organism-based; settings: mouse, in vivo
Mus musculus [37] = assay: The effective dose of compound was tested against maximal electroshock induced seizures after oral administration in mice.; type: functional
Rattus norvegicus [38] = assay: The effective dose of compound was tested against maximal electroshock induced seizures after oral administration in rat.; type: functional
Mus musculus [39] = assay: The effective dose of compound was tested against subcutaneous administered Metrazol induced seizures after intraperitoneal administration;NE=Not effective; type: functional, organism-based
Rattus norvegicus [40] = assay: The effective dose of compound was tested against subcutaneous administered Metrazol induced seizures in rat; NE=Not effective; type: functional, organism-based
[41] = The cytotoxicity after intraperitoneal administration in rat.; type: organism-based; settings: in vivo, ip
Mus musculus [42] = assay: Anticonvulsant activity against subcutaneous administered Metrazol induced seizures (scMET) after 4 hr; Not active up to 300 mg/kg; type: functional, organism-based; design: dose 300 mg/kg
Mus musculus [43] = assay: Anticonvulsant activity against subcutaneous administered Metrazol induced seizures (scMET) after 0.5 hr; Not active up to 300 mg/kg; type: functional, organism-based; design: dose 300 mg/kg
Mus musculus [44] = assay: as §1; type: functional, organism-based; design: dose 300 mg/kg
Mus musculus [45] = assay: as §2; type: functional, organism-based; design: dose 300 mg/kg

SMILES: O=C1CCC(Cc2ccc(Cl)cc2Cl)C(=O)N1 (stereo unspecified)
- Activity (Mus musculus [1]): inactive
- Activity (Mus musculus [2]): inactive
- Activity (Mus musculus [3]): Active
- Activity (Mus musculus [4]): Active
- ED50 (Mus musculus [5]): 160 mg/kg
- TPE (Mus musculus [6]): 0.5
- Toxicity (Mus musculus [7]): Active
- TD50 [8]: 687 mg/kg
- Toxicity (Mus musculus [9]): Active
- Ratio [10]: inactive
- Ratio [11]: 4.29
- TPE (Mus musculus [12]): 1

SMILES: CN1C(=O)CCC(Cc2ccc(I)cc2)C1=O (stereo unspecified)
- Activity (Mus musculus [1]): inactive
- Activity (Mus musculus [2]): inactive
- Activity (Mus musculus [13]): Active
- Activity (Mus musculus [14]): Active
- Toxicity (Mus musculus [15]): Not Active
- Toxicity (Mus musculus [16]): Not Active

SMILES: CN1C(=O)CCC(Cc2ccccc2Br)C1=O (stereo unspecified)
- Activity (Mus musculus [17]): Active
- Activity (Mus musculus [2]): inactive
- Activity (Mus musculus [3]): Active
- Activity (Mus musculus [4]): Active
- ED50 (Mus musculus [18]): 474 mg/kg
- TPE (Mus musculus [6]): 0.5
- ED50 (Mus musculus [19]): 256 mg/kg
- Toxicity (Mus musculus [15]): Not Active
- Toxicity (Mus musculus [16]): Not Active
- TD50 [8]: 617 mg/kg
- Ratio [20]: 1.3
- Ratio [11]: 2.41
- TPE (Mus musculus [12]): 1

SMILES: CCCC(CCC)C(=O)O [VALPROIC ACID]
- Activity (Mus musculus [21]): 0.25
- HD50 (Mus musculus [22]): 885.53 mg/kg
- ED50 (Mus musculus [23]): 149 mg/kg
- ED50 (Mus musculus [18]): 272 mg/kg
- ED50 (Mus musculus [24]): 293 mg/kg
- LD50 (Mus musculus [25]): 1100 mg/kg
- ED50 (Mus musculus [26]): 665 mg/kg
- ED50 (Mus musculus [19]): 149 mg/kg
- Time of peak effect (Mus musculus [27]): 0.25
- ED50 (Rattus norvegicus [28]): 180 mg/kg
- ED50 (Mus musculus [29]): 388 mg/kg

SMILES: O=C1CCC(Cc2ccc(Br)cc2)C(=O)N1 (stereo unspecified)
- Activity (Mus musculus [30]): Active
- Activity (Mus musculus [31]): Active
- Activity (Mus musculus [13]): Active
- Activity (Mus musculus [14]): Active
- TPE (Mus musculus [21]): 1
- ED50 (Mus musculus [18]): 279 mg/kg
- ED50 (Mus musculus [19]): 56.3 mg/kg
- TPE (Mus musculus [27]): 1
- Toxicity (Mus musculus [32]): No toxicity up to 300 mg/kg
- TD50 [8]: 513 mg/kg
- Toxicity (Mus musculus [9]): Active
- Ratio [20]: 1.84
- Ratio [11]: 9.11

SMILES: CCC1(C)CC(=O)NC1=O (stereo unspecified) [ETHOSUXIMIDE]
- ED50 (Mus musculus [33]): > 1000 mg/kg
- ED50 (Mus musculus [5]): 130 mg/kg
- Activity (Mus musculus [34]): 0.5
- HD50 (Mus musculus [35]): 850.61 mg/kg
- ED50 (Mus musculus [23]): 130 mg/kg
- LD50 at 24 h [36]: 1750 mg/kg
- ED50 (Mus musculus [37]): > 2000 mg/kg
- Time of peak effect (Mus musculus [27]): 0.5
- ED50 (Rattus norvegicus [38]): > 1200 mg/kg
- ED50 (Rattus norvegicus [28]): 54 mg/kg
- ED50 (Mus musculus [29]): 192 mg/kg

SMILES: O=C1NC(=O)C(c2ccccc2)(c2ccccc2)N1 [PHENYTOIN]
- ED50 (Mus musculus [39]): inactive
- Activity (Mus musculus [21]): 2 h
- HD50 (Mus musculus [35]): 178.34 mg/kg
- TPE (Mus musculus [6]): 2
- LD50 at 24 h [36]: 230 mg/kg
- Time of peak effect (Mus musculus [27]): 2 h
- ED50 (Rattus norvegicus [40]): inactive
- TPE (Mus musculus [12]): 2
- TD50 [41]: > 3000 mg/kg

SMILES: CN1C(=O)CCC(Cc2ccc([Si](C)(C)C)cc2)C1=O (stereo unspecified)
- Activity (Mus musculus [42]): inactive
- Activity (Mus musculus [1]): inactive
- Activity (Mus musculus [2]): inactive
- Activity (Mus musculus [43]): inactive
- Toxicity (Mus musculus [44]): inactive
- Toxicity (Mus musculus [45]): inactive
